Values after ≈ are worked out from the molar mass of the structure shown. Where a name gives a salt, the structure may show the parent alone. Read-outs that look alike come from different tables or passages of the source.
Assays:
[1] = test system: H37RvMA; experiment: Tuberculosis Alamar Blue/Resazurin assay (MIC); format: cell-based; conditions: read-out: WT H37Rv MTB Activity
[2] = test system: E. coli; experiment: Gram negative MIC protocol (OD600, LB, 24 h); conditions: Escherichia coli
Description: (§1) Overnight bacterial cultures were grown in LB with no added antibiotics at 37° C. with shaking. A 1:1000 dilution of these cultures into LB was exposed to concentration gradients of compounds in 96-well plates (100 μL per well assay volume). Resulting plates were incubated at 37° C. for 24 h without shaking, and OD600 was measured at the end of the incubation. MICs were determined as the lowest concentrations at which OD600 remained at baseline.

[3] = test system: A. baumannii; experiment: Gram negative MIC protocol (OD600, LB, 24 h); conditions: Acinetobacter baumannii
Description: as §1

[4] = Mycobacterium tuberculosis, H37RV, WT H37Rv MTB
[5] = read-out: MIC E. coli delta-TolC LB Media, E. coli delta-TolC, LB media, OD600
[6] = read-out: MIC WT E. coli LB Media, WT E. coli, LB media, OD600
[7] = read-out: MIC A. baumannii LB Media, A. baumannii, LB media, 24 h, OD600
[8] = Mycobacterium tuberculosis, H37RV
[9] = read-out: MIC E. coli delta-TolC LB Media, E. coli delta-TolC strain, LB media, 24 h, OD600
[10] = read-out: MIC WT E. coli LB Media, wild-type E. coli, LB media, 24 h, OD600
[11] = read-out: MIC A. baumannii LB Media

SMILES	MIC [1, 4]	MIC [2, 5]	MIC [2, 6]	MIC [3, 7]	MIC [1, 8]	MIC [2, 9]	MIC [2, 10]	MIC [3, 11]	MIC ([1]; WT H37Rv MTB)
Cc1cccc(COc2ccccc2CNC(C)CC2CCCCC2)c1 (stereo not drawn) [B461, 1-cyclohexyl-N-(2-((3-methylbenzyl)oxy)benzyl)propan-2-amine]	10 µM (≈ 3.52 µg/mL)	< 1 µM	33 µM (≈ 11.6 µg/mL)	33 µM (≈ 11.6 µg/mL)	–	–	–	–	–
NC(=O)c1ccccc1CNCCC1CCCCC1 [B259, 2-((2-cyclohexylethylamino)methyl)benzamide trifluoroacetate]	–	–	–	–	> 150 µM	125 µM	> 150 µM	> 150 µM	–
c1ccc(CNCC2CCCCCC2)cc1 [B99]	55 µM (≈ 12 µg/mL)	> 150 µM	> 150 µM	> 150 µM	–	–	–	–	–
CC(CC1CCCCC1)NCc1ccccc1OCc1ccccc1C(C)C (stereo not drawn) [B458, 1-cyclohexyl-N-(2-((2-isopropylbenzyl)oxy)benzyl)propan-2-amine]	10 µM (≈ 3.8 µg/mL)	4 µM (≈ 1.52 µg/mL)	> 150 µM	20 µM (≈ 7.59 µg/mL)	–	–	–	–	–
c1ccc(CNCCc2ccc3c(c2)COC3)cc1 [B65]	–	> 150 µM	> 150 µM	–	> 150 µM	–	–	> 150 µM	–
CC1CCC(NCc2ccccc2)CC1 (stereo not drawn) [B142]	> 150 µM	> 150 µM	> 150 µM	> 150 µM	–	–	–	–	–
CC(NCc1ccccc1)C1CC1c1ccc(F)cc1 (stereo not drawn) [B76]	> 150 µM	> 150 µM	> 150 µM	> 150 µM	–	–	–	–	–
CC(CC1CCCCC1)NCc1ccccc1CS(=O)(=O)NC(=O)NC1CCCCC1 (stereo not drawn) [B449, N-(cyclohexylcarbamoyl)-1-(2-(((1-cyclohexylpropan-2-yl)amino)methyl)phenyl) methanesulfonamide]	> 150 µM	12 µM (≈ 5.4 µg/mL)	> 150 µM	> 150 µM	–	–	–	–	–
OC1(CCNCc2ccccc2)CCCCC1 [B187]	> 150 µM	> 300 µM	> 300 µM	> 300 µM	–	–	–	–	–
CC(C)CNCc1ccccc1 [B136]	> 150 µM	> 150 µM	> 150 µM	> 150 µM	–	–	–	–	–
CC(CC1CCCCC1)NCc1ccccc1CS(=O)(=O)N(C)C (stereo not drawn) [B437, 1-(2-(((1-cyclohexylpropan-2-yl)amino)methyl)phenyl)-N,N-dimethylmethane sulfonamide]	> 150 µM	4 µM (≈ 1.41 µg/mL)	150 µM (≈ 52.9 µg/mL)	> 150 µM	–	–	–	–	–
CCCC(C)NCc1ccccc1 (stereo not drawn) [B16]	> 150 µM	> 150 µM	> 150 µM	> 150 µM	–	–	–	–	–
Cc1cc(COc2ccccc2CNC(C)CC2CCCCC2)on1 (stereo not drawn) [B241]	> 150 µM	–	–	> 150 µM	–	4 µM (≈ 1.37 µg/mL)	150 µM (≈ 51.4 µg/mL)	–	–
CC(CC1CCCCC1)NCc1ccccc1OCc1nccs1 (stereo not drawn) [B240]	150 µM (≈ 51.7 µg/mL)	–	–	> 150 µM	–	7 µM (≈ 2.41 µg/mL)	> 150 µM	–	–
CC(CC1CCCCC1)NCc1ccccc1CS(=O)(=O)NCC1CCCO1 (stereo not drawn) [B433, 1-(2-(((1-cyclohexylpropan-2-yl)amino)methyl)phenyl)-N-((tetrahydrofuran-2-yl)methyl)methanesulfonamide]	> 150 µM	3 µM (≈ 1.23 µg/mL)	150 µM (≈ 61.3 µg/mL)	150 µM (≈ 61.3 µg/mL)	–	–	–	–	–
CC(NCCC1=CCCCC1)c1ccccc1 (stereo not drawn) [B36]	> 150 µM	> 150 µM	> 150 µM	> 150 µM	–	–	–	–	–
CCN1CC(COc2ccccc2CNCCC2=CCCCC2)OC1=O (stereo not drawn) [B368]	> 150 µM	–	–	> 150 µM	–	20 µM (≈ 7.17 µg/mL)	> 150 µM	–	–
C1=C(CC2CCCCN2Cc2ccccc2)CCCC1 (stereo not drawn) [B163]	> 150 µM	300 µM (≈ 80.8 µg/mL)	> 300 µM	> 150 µM	–	–	–	–	–
Fc1ccc2c(c1)[C@@H](NCc1ccccc1)CC2 [B208, hydrochloride]	> 150 µM	–	–	> 300 µM	–	> 300 µM	> 300 µM	–	–
c1cc(CNCCC2CCCCC2)c2cc[nH]c2c1 [B357]	91 µM (≈ 23.3 µg/mL)	–	–	91 µM (≈ 23.3 µg/mL)	–	20 µM (≈ 5.13 µg/mL)	150 µM (≈ 38.5 µg/mL)	–	–
CC1CCCCC1CCNCc1ccccc1 (stereo not drawn) [B178]	55 µM (≈ 12.7 µg/mL)	> 300 µM	> 300 µM	> 300 µM	–	–	–	–	–
CC(O)COc1ccccc1CNC(C)CC1CCCCC1 (stereo not drawn) [B361]	> 150 µM	–	–	91 µM (≈ 27.8 µg/mL)	–	4 µM (≈ 1.22 µg/mL)	91 µM (≈ 27.8 µg/mL)	–	–
O=C1Cc2ccccc2CN1C1CCCCC1 [B418, 2-cyclohexyl-1,4-dihydroisoquinolin-3(2H)-one]	> 150 µM	> 150 µM	> 150 µM	> 150 µM	–	–	–	–	–
Oc1ccccc1CNCCC1CCCCC1 [B226, 2-((2-cyclohexylethylamino)methyl)phenol]	33 µM (≈ 7.7 µg/mL)	–	–	54 µM (≈ 12.6 µg/mL)	–	33 µM (≈ 7.7 µg/mL)	54 µM (≈ 12.6 µg/mL)	–	–
CC1(C)Cc2cccc(CCNCc3ccccc3)c2O1 [B108]	–	> 150 µM	> 150 µM	–	> 150 µM	–	–	> 150 µM	–
CC(CC1CCCCC1)NCc1ccccc1CS(=O)(=O)N[C@@H](C)C(=O)O (stereo partly drawn) [B454, ((2-(((1-cyclohexylpropan-2-yl)amino)methyl)benzyl)sulfonyl)-L-alanine]	> 150 µM	91 µM (≈ 36.1 µg/mL)	> 150 µM	> 150 µM	–	–	–	–	–

SMILES	MIC [1, 4]	MIC [2, 5]	MIC [2, 6]	MIC [3, 7]	MIC [1, 8]	MIC [2, 9]	MIC [2, 10]	MIC [3, 11]	MIC ([1]; WT H37Rv MTB)
CCOC(=O)COCCOc1ccccc1CNC(C)CC1CCCCC1 (stereo not drawn) [B365]	> 150 µM	–	–	> 150 µM	–	5 µM (≈ 1.89 µg/mL)	> 150 µM	–	–
CC(CC1CCCCC1)NCc1ccccc1OCC(=O)NC1CC1 (stereo not drawn) [B280]	> 150 µM	–	–	150 µM (≈ 51.7 µg/mL)	–	12 µM (≈ 4.13 µg/mL)	150 µM (≈ 51.7 µg/mL)	–	–
Cc1noc(C)c1COc1ccccc1CNC(C)CC1CCCCC1 (stereo not drawn) [B306]	> 150 µM	–	–	> 150 µM	–	12 µM (≈ 4.28 µg/mL)	> 150 µM	–	–
CCOC(COc1ccccc1CNC(C)CC1CCCCC1)OCC (stereo not drawn) [B298]	> 150 µM	–	–	> 150 µM	–	12 µM (≈ 4.36 µg/mL)	> 150 µM	–	–
c1ccc(OCC2CCCO2)c(CNCCC2CCCCC2)c1 (stereo not drawn) [B329, 2-cyclohexyl-N-(2-((tetrahydrofuran-2-yl)methoxy)benzyl)ethanamine]	> 150 µM	–	–	> 150 µM	–	33 µM (≈ 10.5 µg/mL)	> 150 µM	–	–
CC(Cc1cnn(C)c1)NCc1ccccc1 (stereo not drawn) [B41]	–	> 150 µM	> 150 µM	> 150 µM	> 150 µM	–	–	–	–
CC(O)CCOc1ccccc1CNC(C)CC1CCCCC1 (stereo not drawn) [B363]	> 150 µM	–	–	150 µM (≈ 47.9 µg/mL)	–	3 µM (≈ 0.958 µg/mL)	150 µM (≈ 47.9 µg/mL)	–	–
COc1cc2c(cc1OC)CN(CCNCc1ccccc1)CC2 [B147]	> 150 µM	> 150 µM	> 150 µM	> 150 µM	–	–	–	–	–
COc1ccc2cccc(CCNCc3ccccc3)c2c1 [B199]	150 µM (≈ 43.7 µg/mL)	–	–	170 µM (≈ 49.5 µg/mL)	–	170 µM (≈ 49.5 µg/mL)	> 300 µM	–	–
Clc1cc(CCNCc2ccccc2)cc2c1OCCO2 [B55]	–	> 150 µM	> 150 µM	–	150 µM (≈ 45.6 µg/mL)	–	–	> 150 µM	–
CC(CC1CCC1)NCc1ccccc1 (stereo not drawn) [B33]	–	> 150 µM	> 150 µM	–	> 150 µM	–	–	> 150 µM	–
CCC(CNCc1ccccc1)N1CCc2ccccc2C1 (stereo not drawn) [B131]	> 150 µM	> 150 µM	> 150 µM	> 150 µM	–	–	–	–	–
CC(CC1CCCCC1)N1Cc2ccccc2OC1=O (stereo not drawn) [B426, 3-(1-cyclohexylpropan-2-yl)-3,4-dihydro-2H-benzo[e][1,3]oxazin-2-one]	1.7 µM (≈ 0.465 µg/mL)	55 µM (≈ 15 µg/mL)	> 150 µM	> 150 µM	–	–	–	–	–
Cl.c1ccc(CNCC2CCCc3ccccc32)cc1 (stereo not drawn) [B214, N-benzyl-1-(1,2,3,4-tetrahydronaphthalen-1-yl)methanamine hydrochloride]	–	–	–	> 300 µM	–	> 300 µM	> 300 µM	–	>150 µM
CC1CCCCC1CCN1Cc2ccccc2CC1=O (stereo not drawn) [B415, 2-(2-(2-methylcyclohexyl)ethyl)-1,4-dihydroisoquinolin-3(2H)-one]	1.26 µM (≈ 0.341 µg/mL)	55 µM (≈ 14.9 µg/mL)	> 150 µM	> 150 µM	–	–	–	–	–
c1ccc(CNCCC2CCCCC2)cc1 [B132]	> 150 µM	85 µM (≈ 18.5 µg/mL)	124 µM (≈ 27 µg/mL)	150 µM (≈ 32.6 µg/mL)	–	–	–	–	–
CC(CC1CCCCC1)NCc1ccccc1OCc1cc(Br)no1 (stereo not drawn) [B302]	55 µM (≈ 22.4 µg/mL)	–	–	150 µM (≈ 61.1 µg/mL)	–	< 1 µM	150 µM (≈ 61.1 µg/mL)	–	–
Nc1cccc(CNCCC2CCCCC2)c1 [B366]	> 150 µM	–	–	> 150 µM	–	150 µM (≈ 34.9 µg/mL)	150 µM (≈ 34.9 µg/mL)	–	–
CC(C)(CNCc1ccccc1)C1=CCCC1 [B74]	> 150 µM	> 150 µM	> 150 µM	> 150 µM	–	–	–	–	–
CC1(CNCc2ccccc2)CCCCCC1 [B100]	> 150 µM	> 150 µM	> 150 µM	> 150 µM	–	–	–	–	–
CC(CC1CCCCC1)NCc1ccccc1OCc1cscn1 (stereo not drawn) [B292]	150 µM (≈ 51.7 µg/mL)	–	–	> 150 µM	–	4 µM (≈ 1.38 µg/mL)	> 150 µM	–	–
CC(C)=CCCNCc1ccccc1 [B51]	> 150 µM	> 150 µM	> 150 µM	> 150 µM	–	–	–	–	–
c1ccc(CNCCc2ccc3ccccc3c2)cc1 [B133]	55 µM (≈ 14.4 µg/mL)	> 150 µM	> 150 µM	> 150 µM	–	–	–	–	–
COc1ccc(CCNCc2ccccc2)c2ccccc12 [B111]	33 µM (≈ 9.62 µg/mL)	150 µM (≈ 43.7 µg/mL)	> 150 µM	150 µM (≈ 43.7 µg/mL)	–	–	–	–	–
CC(CC1CCCCC1)NCc1ccccc1CCC(N)=O (stereo not drawn) [B399, 3-(2-((1-cyclohexylpropan-2-ylamino)methyl)phenyl)propanamide trifluoroacetate]	–	20 µM	150 µM	–	> 150 µM	–	–	> 150 µM	–
